Data taken from patent US20040127403A1, “Methods for treating and preventing Gram-positive bacteremias” (priority 2002, published 2004).
Values after ≈ are worked out from the molar mass of the structure shown.

How the values were obtained:
Assay in all cases: MIC, NCCLS broth microdilution
Format in all cases: cell-based
S. epidermidis ATCC18972 = conditions: Staphylococcus epidermidis, ATCC18972, S. epidermidis ATCC18972
S. epidermidis ATCC35984 = conditions: Staphylococcus epidermidis, ATCC35984, S. epidermidis ATCC35984
E. faecium A2735 Syn-R = conditions: Enterococcus faecium, A2735SYNR
How it was run: (§1)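 CAMHB and TSB, each + 0.02% BSA (blocks ramoplanin binding to plastic); MIC by NCCLS broth microdilution.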

E. faecalis ATCC29212 = conditions: Enterococcus faecalis, ATCC29212, E. faecalis ATCC29212
How it was run: as §1

E. faecium A6350 Line-R = conditions: Enterococcus faecium, A6350LINER
How it was run: as §1

S. aureus ATCC27659 MSSA = conditions: Staphylococcus aureus
How it was run: as §1

E. faecium A4192 Syn-R = conditions: Enterococcus faecium, A4192SYNR
How it was run: as §1

E. faecium UA392 = conditions: Enterococcus faecium, UA392, E. faecium UA392
How it was run: as §1

S. aureus ATCC43300 MRSA = tested on: S. aureus ATCC43300 MRSA
How it was run: as §1

E. faecium UA210 = conditions: Enterococcus faecium, UA210, E. faecium UA210
How it was run: as §1

S. epidermidis ATCC12228 = conditions: Staphylococcus epidermidis, ATCC12228, S. epidermidis ATCC12228
How it was run: as §1

S. aureus ATCC27660 MSSA = conditions: Staphylococcus aureus
How it was run: as §1

E. gallinarum UA604 = conditions: Enterococcus gallinarum, GALLINARUM
How it was run: as §1

S. aureus ATCC35556 MRSA = conditions: Staphylococcus aureus
How it was run: as §1

E. faecium ATCC700221 = conditions: Enterococcus faecium, ATCC700221, E. faecium ATCC700221
How it was run: as §1

E. faecalis A7789 Line-R = conditions: Enterococcus faecalis, A7789LINER
How it was run: as §1

E. faecium A6349 Line-R = conditions: Enterococcus faecium, A6349LINER
How it was run: as §1

E. faecium A-5960 Line-R = conditions: Enterococcus faecium, A5960LINER
How it was run: as §1

S. aureus ATCC19636 MSSA = conditions: Staphylococcus aureus
How it was run: as §1

S. epidermidis ATCC14990 = conditions: Staphylococcus epidermidis, ATCC14990, S. epidermidis ATCC14990
How it was run: as §1

E. faecalis ATCC51299 = conditions: Enterococcus faecalis, ATCC51299, E. faecalis ATCC51299
How it was run: as §1

S. epidermidis ATCC35983 = conditions: Staphylococcus epidermidis, ATCC35983, S. epidermidis ATCC35983
How it was run: as §1

E. faecium A5959 Line-R = conditions: Enterococcus faecium, A5959LINER
How it was run: as §1

CN[C@H](CC(C)C)C(=O)N[C@H]1C(=O)N[C@@H](CC(N)=O)C(=O)N[C@H]2C(=O)N[C@H]3C(=O)N[C@H](C(=O)N[C@H](C(=O)O)c4cc(O)cc(O)c4-c4cc3ccc4O)[C@H](O)c3ccc(c(Cl)c3)Oc3cc2cc(c3O[C@@H]2O[C@H](CO)[C@@H](O)[C@H](O)[C@H]2O[C@H]2C[C@](C)(N)[C@H](O)[C@H](C)O2)Oc2ccc(cc2Cl)[C@H]1O [Vancomycin]
MIC (S. epidermidis ATCC18972; CAMHB): 4 µg/mL (≈ 2.76 µM)
MIC (S. epidermidis ATCC18972; TSB): 4 µg/mL (≈ 2.76 µM)
MIC (S. epidermidis ATCC18972; Table 6, 1st): 2 µg/mL (≈ 1.38 µM)
MIC (S. epidermidis ATCC18972; Table 6, 2nd): 2 µg/mL (≈ 1.38 µM)
MIC (S. epidermidis ATCC35984; CAMHB): 4 µg/mL (≈ 2.76 µM)
MIC (S. epidermidis ATCC35984; TSB): 4 µg/mL (≈ 2.76 µM)
MIC (S. epidermidis ATCC35984; Table 6, 1st): 2 µg/mL (≈ 1.38 µM)
MIC (S. epidermidis ATCC35984; Table 6, 2nd): 2 µg/mL (≈ 1.38 µM)
MIC (E. faecium A2735 Syn-R; CAMHB): > 16 µg/mL
MIC (E. faecium A2735 Syn-R; TSB): > 16 µg/mL
MIC (E. faecium A2735 Syn-R; Table 6, 1st): > 16 µg/mL
MIC (E. faecium A2735 Syn-R; Table 6, 2nd): > 64 µg/mL
MIC (E. faecalis ATCC29212; CAMHB): 4 µg/mL (≈ 2.76 µM)
MIC (E. faecalis ATCC29212; Table 6, 1st): 2 µg/mL (≈ 1.38 µM)
MIC (E. faecalis ATCC29212; Table 6, 2nd): 2 µg/mL (≈ 1.38 µM)
MIC (E. faecium A6350 Line-R; CAMHB): 2 µg/mL (≈ 1.38 µM)
MIC (E. faecium A6350 Line-R; TSB): 2 µg/mL (≈ 1.38 µM)
MIC (E. faecium A6350 Line-R; Table 6, 1st): 1 µg/mL (≈ 0.69 µM)
MIC (E. faecium A6350 Line-R; Table 6, 2nd): 1 µg/mL (≈ 0.69 µM)
MIC (S. aureus ATCC27659 MSSA; CAMHB): 1 µg/mL (≈ 0.69 µM)
MIC (S. aureus ATCC27659 MSSA; TSB): > 16 µg/mL
MIC (S. aureus ATCC27659 MSSA; Table 6, 1st): 1 µg/mL (≈ 0.69 µM)
MIC (S. aureus ATCC27659 MSSA; Table 6, 2nd): 1 µg/mL (≈ 0.69 µM)
MIC (E. faecium A4192 Syn-R; CAMHB): > 16 µg/mL
MIC (E. faecium A4192 Syn-R; TSB): > 16 µg/mL
MIC (E. faecium A4192 Syn-R; Table 6, 1st): > 16 µg/mL
MIC (E. faecium A4192 Syn-R; Table 6, 2nd): > 64 µg/mL
MIC (E. faecium UA392; CAMHB): 1 µg/mL (≈ 0.69 µM)
MIC (E. faecium UA392; TSB): 2 µg/mL (≈ 1.38 µM)
MIC (E. faecium UA392; Table 6, 1st): 2 µg/mL (≈ 1.38 µM)
MIC (E. faecium UA392; Table 6, 2nd): 2 µg/mL (≈ 1.38 µM)
MIC (S. aureus ATCC43300 MRSA; S. aureus ATCC43300 MRSA/VISA, Table 6, 2nd): 1 µg/mL (≈ 0.69 µM)
MIC (S. aureus ATCC43300 MRSA; S. aureus ATCC43300 MRSA, TSB): 2, 2 μg/ml
MIC (S. aureus ATCC43300 MRSA; Staphylococcus aureus): 2 µg/mL (≈ 1.38 µM)
MIC (S. aureus ATCC43300 MRSA; Staphylococcus aureus, ATCC 43300 / MRSA / VISA): 1 µg/mL (≈ 0.69 µM)
MIC (E. faecium UA210; CAMHB): > 16 µg/mL
MIC (E. faecium UA210; TSB): > 16 µg/mL
MIC (E. faecium UA210; Table 6, 1st): > 16 µg/mL
MIC (E. faecium UA210; Table 6, 2nd): > 64 µg/mL
MIC (S. epidermidis ATCC12228; CAMHB): 4 µg/mL (≈ 2.76 µM)
MIC (S. epidermidis ATCC12228; TSB): 4 µg/mL (≈ 2.76 µM)
MIC (S. epidermidis ATCC12228; Table 6, 1st): 2 µg/mL (≈ 1.38 µM)
MIC (S. epidermidis ATCC12228; Table 6, 2nd): 2 µg/mL (≈ 1.38 µM)
MIC (S. aureus ATCC27660 MSSA; CAMHB): 2 µg/mL (≈ 1.38 µM)
MIC (S. aureus ATCC27660 MSSA; TSB): 2 µg/mL (≈ 1.38 µM)
MIC (S. aureus ATCC27660 MSSA; Table 6, 1st): 1 µg/mL (≈ 0.69 µM)
MIC (S. aureus ATCC27660 MSSA; Table 6, 2nd): 1 µg/mL (≈ 0.69 µM)
MIC (E. gallinarum UA604; CAMHB): 1 µg/mL (≈ 0.69 µM)
MIC (E. gallinarum UA604; TSB): 2 µg/mL (≈ 1.38 µM)
MIC (E. gallinarum UA604; Table 6, 1st): 0.5 µg/mL (≈ 0.345 µM)
MIC (E. gallinarum UA604; Table 6, 2nd): 0.5 µg/mL (≈ 0.345 µM)
MIC (S. aureus ATCC35556 MRSA; CAMHB): 1 µg/mL (≈ 0.69 µM)
MIC (S. aureus ATCC35556 MRSA; TSB): > 16 µg/mL
MIC (S. aureus ATCC35556 MRSA; Table 6, 1st): 1 µg/mL (≈ 0.69 µM)
MIC (S. aureus ATCC35556 MRSA; Table 6, 2nd): 1 µg/mL (≈ 0.69 µM)
MIC (E. faecium ATCC700221; CAMHB): > 16 µg/mL
MIC (E. faecium ATCC700221; TSB): > 16 µg/mL
MIC (E. faecium ATCC700221; Table 6, 1st): > 16 µg/mL
MIC (E. faecium ATCC700221; Table 6, 2nd): > 64 µg/mL
MIC (E. faecalis A7789 Line-R; CAMHB): 2 µg/mL (≈ 1.38 µM)
MIC (E. faecalis A7789 Line-R; TSB): 2 µg/mL (≈ 1.38 µM)
MIC (E. faecalis A7789 Line-R; Table 6, 1st): 1 µg/mL (≈ 0.69 µM)
MIC (E. faecalis A7789 Line-R; Table 6, 2nd): 1 µg/mL (≈ 0.69 µM)
MIC (E. faecium A6349 Line-R; Table 6, 1st): > 16 µg/mL
MIC (E. faecium A6349 Line-R; Table 6, 2nd): > 64 µg/mL
MIC (E. faecium A-5960 Line-R; CAMHB): > 16 µg/mL
MIC (E. faecium A-5960 Line-R; TSB): > 16 µg/mL
MIC (E. faecium A-5960 Line-R; Table 6, 1st): > 16 µg/mL
MIC (E. faecium A-5960 Line-R; Table 6, 2nd): > 64 µg/mL
MIC (S. aureus ATCC19636 MSSA; CAMHB): 2 µg/mL (≈ 1.38 µM)
MIC (S. aureus ATCC19636 MSSA; TSB): > 16 µg/mL
MIC (S. aureus ATCC19636 MSSA; Table 6, 1st): 1 µg/mL (≈ 0.69 µM)
MIC (S. aureus ATCC19636 MSSA; Table 6, 2nd): 1 µg/mL (≈ 0.69 µM)
MIC (S. epidermidis ATCC14990; CAMHB): 4 µg/mL (≈ 2.76 µM)
MIC (S. epidermidis ATCC14990; TSB): 4 µg/mL (≈ 2.76 µM)
MIC (S. epidermidis ATCC14990; Table 6, 1st): 2 µg/mL (≈ 1.38 µM)
MIC (S. epidermidis ATCC14990; Table 6, 2nd): 2 µg/mL (≈ 1.38 µM)
MIC (E. faecalis ATCC51299; CAMHB): > 16 µg/mL
MIC (E. faecalis ATCC51299; TSB): > 16 µg/mL
MIC (E. faecalis ATCC51299; Table 6, 1st): > 16 µg/mL
MIC (E. faecalis ATCC51299; Table 6, 2nd): 32 µg/mL (≈ 22.1 µM)
MIC (S. epidermidis ATCC35983; CAMHB): 4 µg/mL (≈ 2.76 µM)
MIC (S. epidermidis ATCC35983; TSB): 4 µg/mL (≈ 2.76 µM)
MIC (S. epidermidis ATCC35983; Table 6, 1st): 2 µg/mL (≈ 1.38 µM)
MIC (S. epidermidis ATCC35983; Table 6, 2nd): 2 µg/mL (≈ 1.38 µM)
MIC (E. faecium A5959 Line-R; CAMHB): > 16 µg/mL
MIC (E. faecium A5959 Line-R; TSB): > 16 µg/mL
MIC (E. faecium A5959 Line-R; Table 6, 1st): > 16 µg/mL
MIC (E. faecium A5959 Line-R; Table 6, 2nd): > 64 µg/mL
